ChEMBL document CHEMBL4229418, “Design, synthesis and pharmacology of aortic-selective acyl-CoA: Cholesterol O-acyltransferase (ACAT/SOAT) inhibitors” (Bioorg Med Chem, 2018)

Key:
Hamster [1] = test: Effect on lipid composition in Bio F1B hamster model of diet-induced atherosclerosis assessed as intestine total cholesterol level at 10 mg/kg/day added to chow pellets (reference value: 4.51 mg/dl); assay type: functional, Cricetinae
Hamster [2] = test: Antiatherosclerotic activity in Bio F1B hamster model of diet-induced atherosclerosis assessed as adrenal cholesterol ester level at 1 mg/kg/day added to chow pellets (reference value: 5.88 mg/dl); assay type: functional, Cricetinae
Hamster [3] = test: Effect on lipid composition in Bio F1B hamster model of diet-induced atherosclerosis assessed as adrenal total cholesterol level at 1 mg/kg/day added to chow pellets (reference value: 10.54 mg/dl); assay type: functional, Cricetinae
Hamster [4] = test: Antiatherosclerotic activity in Bio F1B hamster model of diet-induced atherosclerosis assessed as reduction in lipid accumulation areas in aortic arch at 30 mg/kg/day added to chow pellets by oil red O staining based assay relative to control; assay type: functional; settings: Cricetinae
[5] = Tmax in non-fasted Sprague-Dawley rat at 30 mg/kg, po by LC-MS/MS analysis; assay type: ADME, organism-based; settings: in vivo
Hamster [6] = test: Antiatherosclerotic activity in Bio F1B hamster model of diet-induced atherosclerosis assessed as plasma cholesterol ester level at 10 mg/kg/day added to chow pellets (reference value: 1379.3 mg/dl); assay type: functional, Cricetinae
Hamster [7] = test: Toxicity in Bio F1B hamster model of diet-induced atherosclerosis assessed as plasma total cholesterol level at 3 mg/kg/day added to chow pellets (reference value: 2160.1 mg/dl); assay type: organism-based; settings: cricetinae, in vivo
[8] = AUC (0 to 8 hrs) in fasted Beagle dog at 30 mg/kg, po by LC-MS/MS analysis; assay type: ADME, organism-based, Canis lupus familiaris; set-up: dose 30 mg/kg, time < 8 hr, route oral; settings: in vivo
Hamster [9] = test: Antiatherosclerotic activity in Bio F1B hamster model of diet-induced atherosclerosis assessed as liver cholesterol ester level at 30 mg/kg/day added to chow pellets (reference value: 24.04 mg/dl); assay type: functional, Cricetinae
Hamster [10] = test: Toxicity in Bio F1B hamster model of diet-induced atherosclerosis assessed as adrenal free cholesterol level at 30 mg/kg/day added to chow pellets (reference value: 4.65 mg/dl); assay type: organism-based; settings: cricetinae, in vivo
Hamster [11] = test: Antiatherosclerotic activity in Bio F1B hamster model of diet-induced atherosclerosis assessed as liver free cholesterol level at 30 mg/kg/day added to chow pellets (reference value: 7.94 mg/dl); assay type: functional, Cricetinae
Hamster [12] = test: Effect on lipid composition in Bio F1B hamster model of diet-induced atherosclerosis assessed as intestine total cholesterol level at 1 mg/kg/day added to chow pellets (reference value: 4.51 mg/dl); assay type: functional, Cricetinae
[13] = Cmax in fasted Beagle dog at 30 mg/kg, po by LC-MS/MS analysis; assay type: ADME, organism-based, Canis lupus familiaris; set-up: dose 30 mg/kg, route oral; settings: in vivo
Hamster [14] = test: Toxicity in Bio F1B hamster model of diet-induced atherosclerosis assessed as plasma total cholesterol level at 10 mg/kg/day added to chow pellets (reference value: 2160.1 mg/dl); assay type: organism-based; settings: cricetinae, in vivo
Hamster [15] = test: Antiatherosclerotic activity in Bio F1B hamster model of diet-induced atherosclerosis assessed as intestinal cholesterol ester level at 10 mg/kg/day added to chow pellets (reference value: 1.09 mg/dl); assay type: functional, Cricetinae
Hamster [16] = test: Effect on lipid composition in Bio F1B hamster model of diet-induced atherosclerosis assessed as adrenal total cholesterol level at 3 mg/kg/day added to chow pellets (reference value: 10.54 mg/dl); assay type: functional, Cricetinae
Hamster [17] = test: Antiatherosclerotic activity in Bio F1B hamster model of diet-induced atherosclerosis assessed as plasma free cholesterol level at 30 mg/kg/day added to chow pellets (reference value: 780.8 mg/dl); assay type: functional, Cricetinae
Hamster [18] = test: Antiatherosclerotic activity in Bio F1B hamster model of diet-induced atherosclerosis assessed as adrenal cholesterol ester level at 3 mg/kg/day added to chow pellets (reference value: 5.88 mg/dl); assay type: functional, Cricetinae
Hamster [19] = test: Antiatherosclerotic activity in Bio F1B hamster model of diet-induced atherosclerosis assessed as intestinal free cholesterol level at 30 mg/kg/day added to chow pellets (reference value: 3.41 mg/dl); assay type: functional, Cricetinae
[20] = Tmax in fasted Beagle dog at 30 mg/kg, po by LC-MS/MS analysis; assay type: ADME, organism-based, Canis lupus familiaris; settings: in vivo
Hamster [21] = test: Effect on lipid composition in Bio F1B hamster model of diet-induced atherosclerosis assessed as intestine total cholesterol level at 3 mg/kg/day added to chow pellets (reference value: 4.51 mg/dl); assay type: functional, Cricetinae
[22] = AUC (0 to 8 hrs) in non-fasted Sprague-Dawley rat at 30 mg/kg, po by LC-MS/MS analysis; assay type: ADME, organism-based; set-up: dose 30 mg/kg, time < 8 hr, route oral; settings: in vivo
Hamster [23] = test: Antiatherosclerotic activity in Bio F1B hamster model of diet-induced atherosclerosis assessed as liver free cholesterol level at 1 mg/kg/day added to chow pellets (reference value: 7.94 mg/dl); assay type: functional, Cricetinae
[24] = AUC (0 to 8 hrs) in non-fasted Beagle dog at 30 mg/kg, po by LC-MS/MS analysis; assay type: ADME, organism-based, Canis lupus familiaris; set-up: time < 8 hr, dose 30 mg/kg, route oral; settings: in vivo
Hamster [25] = test: Antiatherosclerotic activity in Bio F1B hamster model of diet-induced atherosclerosis assessed as reduction in lipid accumulation areas in aortic arch at 10 mg/kg/day added to chow pellets by oil red O staining based assay relative to control; assay type: functional; settings: Cricetinae
Hamster [26] = test: Antiatherosclerotic activity in Bio F1B hamster model of diet-induced atherosclerosis assessed as adrenal cholesterol ester level at 10 mg/kg/day added to chow pellets (reference value: 5.88 mg/dl); assay type: functional, Cricetinae
Hamster [27] = test: Effect on lipid composition in Bio F1B hamster model of diet-induced atherosclerosis assessed as adrenal total cholesterol level at 30 mg/kg/day added to chow pellets (reference value: 10.54 mg/dl); assay type: functional, Cricetinae
Hamster [28] = test: Effect on lipid composition in Bio F1B hamster model of diet-induced atherosclerosis assessed as liver total cholesterol level at 30 mg/kg/day added to chow pellets (reference value: 31.99 mg/dl); assay type: functional, Cricetinae
Hamster [29] = test: Antiatherosclerotic activity in Bio F1B hamster model of diet-induced atherosclerosis assessed as liver cholesterol ester level at 3 mg/kg/day added to chow pellets (reference value: 24.04 mg/dl); assay type: functional, Cricetinae
Hamster [30] = test: Antiatherosclerotic activity in Bio F1B hamster model of diet-induced atherosclerosis assessed as liver free cholesterol level at 3 mg/kg/day added to chow pellets (reference value: 7.94 mg/dl); assay type: functional, Cricetinae
[31] = Toxicity in rat measured over 2 weeks; assay type: organism-based; settings: in vivo
Hamster [32] = test: Antiatherosclerotic activity in Bio F1B hamster model of diet-induced atherosclerosis assessed as plasma cholesterol ester level at 1 mg/kg/day added to chow pellets (reference value: 1379.3 mg/dl); assay type: functional, Cricetinae
Hamster [33] = test: Antiatherosclerotic activity in Bio F1B hamster model of diet-induced atherosclerosis assessed as liver cholesterol ester level at 1 mg/kg/day added to chow pellets (reference value: 24.04 mg/dl); assay type: functional, Cricetinae
Hamster [34] = test: Toxicity in Bio F1B hamster model of diet-induced atherosclerosis assessed as adrenal free cholesterol level at 10 mg/kg/day added to chow pellets (reference value: 4.65 mg/dl); assay type: organism-based; settings: cricetinae, in vivo
Hamster [35] = test: Toxicity in Bio F1B hamster model of diet-induced atherosclerosis assessed as adrenal free cholesterol level at 3 mg/kg/day added to chow pellets (reference value: 4.65 mg/dl); assay type: organism-based; settings: cricetinae, in vivo

Tmax [5]: 3.2 h | AUC(0-t) at 8 h [8]: 14 ng·h/mL | Cmax [13]: 5 ng/mL | Tmax [20]: 1 h | AUC(0-t) at 8 h [22]: 358 ng·h/mL | AUC(0-t) at 8 h [24]: 2960 ng·h/mL
SMILES: CC(C)c1cccc(C(C)C)c1NC(=O)CCCCCCCCSc1nc2ccccc2o1
Activity (Hamster [1]): 4.07 mg/dL | Activity (Hamster [2]): 6.72 mg/dL | Activity (Hamster [3]): 11.13 mg/dL | inhibition in vivo at 30 mg/kg/day (Hamster [4]): 7% | Activity (Hamster [6]): 799.7 mg/dL | Activity (Hamster [7]): 2241 mg/dL | Activity (Hamster [9]): 0.69 mg/dL | Activity (Hamster [10]): 2.4 mg/dL | Activity (Hamster [11]): 2.43 mg/dL | Activity (Hamster [12]): 4.4 mg/dL | Activity (Hamster [14]): 1291.7 mg/dL | Activity (Hamster [15]): 0.31 mg/dL | Activity (Hamster [16]): 10.07 mg/dL | Activity (Hamster [17]): 217.2 mg/dL | Activity (Hamster [18]): 6.02 mg/dL | Activity (Hamster [19]): 4.62 mg/dL | Activity (Hamster [21]): 4.12 mg/dL | Activity (Hamster [23]): 7.94 mg/dL | inhibition in vivo at 10 mg/kg/day (Hamster [25]): 42% | Activity (Hamster [26]): 3.5 mg/dL | Activity (Hamster [27]): 3.47 mg/dL | Activity (Hamster [28]): 3.03 mg/dL | Activity (Hamster [29]): 17.67 mg/dL | Activity (Hamster [30]): 5.95 mg/dL | NOAEL at 336 h [31]: 30 mg/kg | Activity (Hamster [32]): 1512.6 mg/dL | Activity (Hamster [33]): 22.81 mg/dL | Activity (Hamster [34]): 3.5 mg/dL | Activity (Hamster [35]): 4.05 mg/dL
